# Laboratory results: patent US20220218678A1, “USE OF 1-PHENYL-2-PYRIDINYL ALKYL ALCOHOL DERIVATIVES FOR TREATING CYSTIC FIBROSIS” (CHIESI FARMACEUTICI S.p.A., priority 2017, published 2022)
# Columns and labels:
# Assay type in all cases: cell-based
# CFTR channel = target: T1, CFTR channel (Homo sapiens, UniProt P13569); test: Transepithelial electrical resistance (TEER) assay on 16HBE14o− bronchial epithelial cells; conditions: 16HBE14o− cells, 10, 30 and 60 minutes; CHF6001 30 nM, Roflumilast 50 nM
# T1 construct: the TEER assay was performed with these agents on 16HBE14o− bronchial epithelial cells (BEC); endogenous in cells; host or cells: 16HBE14o− human bronchial epithelial cell line (provided by P. Davis)
# CFTR [1] = target: T2, CFTR (Homo sapiens, UniProt P13569, DEL508-508); test: Flow cytometry, presence of CFTR epitopes on CFBE41o− cells; conditions: 24 h of treatment, CHF6001 30 nM, Roflumilast 50 nM
# T2 construct: cells expressing endogenous ΔF508-CFTR; endogenous in cells; host or cells: CFBE41o− human CF bronchial epithelial cell line (gift from D. C. Gruenert), homozygous ΔF508
# Description: CFBE41o− cells were seeded 1.5×10^5 cells/well into a 6 multi-well dish in EMEM medium, supplemented with 10% FBS and 1 mM L-glutamine, and maintained in incubator at 37° C. overnight. The day after, the cells were treated with different agents, as follows: VRT809 (5 μM), CHF6001 (30 nM), Roflumilast (50 nM) or the vehicle DMSO. After 24 h cells were harvested.
# Specifically for detection of the extracellular domain of CFTR, the cells were washed with PBS 1× and successively stained with the anti-CFTR monoclonal antibody CF3 (Abeam), suitable for detection of the extracellular domain of CFTR. After washing, the secondary antibody goat anti-mouse (μ-chain) conjugated with Alexa Fluor-488 (Invitrogen, Carlsbad, U.S.A.) was added (1 μg for 10^6 cells) for 30 min on ice. […]
# Finally cells were washed twice and then analysed at MACSQuant Analyzer (Miltenyi Biotech, Cologne, Germany), and data were analysed with FlowJo Software (Tree Star, Inc).
# The percentage of events with background noise (determined with IgM isotype or peptide signal) was subtracted and the result was expressed as %-values of CFTR positive cells. Geometrical means of the signal in the green channel were also obtained and a ratio between the signals obtained with the extracellular-domain specific antibody CF3 and with the polyclonal antibody (Alomone), respectively, with respect to the baseline signal was calculated (MFI). […]
# CFTR [2] = target: T2, CFTR; test: Western Blot, total presence of CFTR protein in CFBE41o− cells; conditions: 24 h exposure, VRT809 5 μM
# Description: CFBE41o− and 16HBE14o− cells, respectively, were lysed in lysis buffer (50 mmol/L Tris, 150 mmol/L NaCl, 1 mmol/L EDTA, 1% Triton X-100 pH 7.4) containing protease inhibitors (Roche, Inc.). A total of 10 μg (16HBE14o−/CFBE41o−) total protein per lane was separated using 7.5% (v/v) polyacrylamide electrophoresis (PAGE) SDS gels and transferred onto nitro-cellulose membranes, that were probed with a monoclonal anti-CFTR antibody (Cell Signaling 2269; according to information provided by Cell Signaling produced by immunizing rabbits with a synthetic peptide corresponding to amino acid residues near the amino terminus of human CFTR) at a 1:500 dilution, overnight at 4° C. Membranes were re-probed with a monoclonal anti-actin (Sigma-Aldrich) to normalize for protein loading. The relative levels of CFTR were estimated by densitometry using the ImageJ program (http://rsb.info.nih.gov/ij/). The amount of band C (understood to be the fully glycosylated mature form of CFTR)) is calculated as a fraction of actin for the respective lane and reported as a fraction of the total (band C/actin). […] The values reported are expressed as means+/−SD (n=3). Data sets were compared by a t-test using GraphPad Prism. […]
# FIG. 5. Presence of CFTR was evaluated by western blotting in human bronchial epithelial cell lines 16HBE14o− (non CF) and CFBE41o− (ΔF508/ΔF508) after 24 h exposure to CFTR corrector VRT809 (5 μM) in comparison with the two compounds CHF6001 and Roflumilast.
# Top: average of several experiments; the relative levels of CFTR were estimated by densitometry using the ImageJ program (http://rsb.info.nih.gov/ij/). The native amount of band C is calculated as a fraction of actin for the respective lane and reported as a fraction of the total (band C/actin). The values reported are expressed as means+/−SEM (n=3). […]
# T2 sequence (P13569 with tags, fused parts or gaps DEL508-508): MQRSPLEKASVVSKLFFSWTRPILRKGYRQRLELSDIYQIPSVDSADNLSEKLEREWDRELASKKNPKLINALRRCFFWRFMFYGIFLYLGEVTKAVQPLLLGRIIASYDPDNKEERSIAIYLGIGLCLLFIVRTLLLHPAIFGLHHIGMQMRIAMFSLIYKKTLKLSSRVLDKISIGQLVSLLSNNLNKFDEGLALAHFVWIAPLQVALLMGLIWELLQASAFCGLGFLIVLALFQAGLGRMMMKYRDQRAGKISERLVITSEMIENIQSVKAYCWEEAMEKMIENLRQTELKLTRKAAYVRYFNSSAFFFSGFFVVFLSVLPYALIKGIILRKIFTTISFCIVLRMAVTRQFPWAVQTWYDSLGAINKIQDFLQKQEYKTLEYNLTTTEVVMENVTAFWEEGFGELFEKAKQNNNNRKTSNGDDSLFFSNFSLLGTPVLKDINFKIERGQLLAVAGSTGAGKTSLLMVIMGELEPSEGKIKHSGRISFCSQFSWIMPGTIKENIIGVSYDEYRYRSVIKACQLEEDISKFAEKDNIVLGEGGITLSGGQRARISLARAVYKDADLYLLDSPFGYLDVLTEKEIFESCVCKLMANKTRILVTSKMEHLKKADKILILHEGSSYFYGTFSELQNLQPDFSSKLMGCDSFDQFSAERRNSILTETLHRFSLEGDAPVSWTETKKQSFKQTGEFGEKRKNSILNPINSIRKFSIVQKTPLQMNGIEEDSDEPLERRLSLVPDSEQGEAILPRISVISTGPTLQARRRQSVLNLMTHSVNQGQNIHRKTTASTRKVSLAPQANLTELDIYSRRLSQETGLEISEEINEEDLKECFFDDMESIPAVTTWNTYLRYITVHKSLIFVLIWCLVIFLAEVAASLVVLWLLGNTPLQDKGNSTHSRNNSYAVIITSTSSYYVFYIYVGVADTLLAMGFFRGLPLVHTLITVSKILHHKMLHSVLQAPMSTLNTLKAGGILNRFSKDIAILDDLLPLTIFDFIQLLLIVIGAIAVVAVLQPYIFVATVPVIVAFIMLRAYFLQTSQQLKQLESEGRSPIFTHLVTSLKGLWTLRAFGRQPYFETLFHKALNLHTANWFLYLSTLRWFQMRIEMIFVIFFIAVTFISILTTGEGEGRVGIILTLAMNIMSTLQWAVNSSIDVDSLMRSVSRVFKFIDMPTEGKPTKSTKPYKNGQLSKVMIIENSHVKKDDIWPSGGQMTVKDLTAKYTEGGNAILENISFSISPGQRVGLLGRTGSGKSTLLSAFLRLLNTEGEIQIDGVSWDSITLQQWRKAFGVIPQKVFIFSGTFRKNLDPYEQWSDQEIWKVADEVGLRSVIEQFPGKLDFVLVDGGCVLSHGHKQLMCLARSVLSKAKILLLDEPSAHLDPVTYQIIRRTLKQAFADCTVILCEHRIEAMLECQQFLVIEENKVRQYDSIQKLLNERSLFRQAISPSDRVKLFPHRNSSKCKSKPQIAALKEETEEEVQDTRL
# T1 sequence (P13569 whole entry): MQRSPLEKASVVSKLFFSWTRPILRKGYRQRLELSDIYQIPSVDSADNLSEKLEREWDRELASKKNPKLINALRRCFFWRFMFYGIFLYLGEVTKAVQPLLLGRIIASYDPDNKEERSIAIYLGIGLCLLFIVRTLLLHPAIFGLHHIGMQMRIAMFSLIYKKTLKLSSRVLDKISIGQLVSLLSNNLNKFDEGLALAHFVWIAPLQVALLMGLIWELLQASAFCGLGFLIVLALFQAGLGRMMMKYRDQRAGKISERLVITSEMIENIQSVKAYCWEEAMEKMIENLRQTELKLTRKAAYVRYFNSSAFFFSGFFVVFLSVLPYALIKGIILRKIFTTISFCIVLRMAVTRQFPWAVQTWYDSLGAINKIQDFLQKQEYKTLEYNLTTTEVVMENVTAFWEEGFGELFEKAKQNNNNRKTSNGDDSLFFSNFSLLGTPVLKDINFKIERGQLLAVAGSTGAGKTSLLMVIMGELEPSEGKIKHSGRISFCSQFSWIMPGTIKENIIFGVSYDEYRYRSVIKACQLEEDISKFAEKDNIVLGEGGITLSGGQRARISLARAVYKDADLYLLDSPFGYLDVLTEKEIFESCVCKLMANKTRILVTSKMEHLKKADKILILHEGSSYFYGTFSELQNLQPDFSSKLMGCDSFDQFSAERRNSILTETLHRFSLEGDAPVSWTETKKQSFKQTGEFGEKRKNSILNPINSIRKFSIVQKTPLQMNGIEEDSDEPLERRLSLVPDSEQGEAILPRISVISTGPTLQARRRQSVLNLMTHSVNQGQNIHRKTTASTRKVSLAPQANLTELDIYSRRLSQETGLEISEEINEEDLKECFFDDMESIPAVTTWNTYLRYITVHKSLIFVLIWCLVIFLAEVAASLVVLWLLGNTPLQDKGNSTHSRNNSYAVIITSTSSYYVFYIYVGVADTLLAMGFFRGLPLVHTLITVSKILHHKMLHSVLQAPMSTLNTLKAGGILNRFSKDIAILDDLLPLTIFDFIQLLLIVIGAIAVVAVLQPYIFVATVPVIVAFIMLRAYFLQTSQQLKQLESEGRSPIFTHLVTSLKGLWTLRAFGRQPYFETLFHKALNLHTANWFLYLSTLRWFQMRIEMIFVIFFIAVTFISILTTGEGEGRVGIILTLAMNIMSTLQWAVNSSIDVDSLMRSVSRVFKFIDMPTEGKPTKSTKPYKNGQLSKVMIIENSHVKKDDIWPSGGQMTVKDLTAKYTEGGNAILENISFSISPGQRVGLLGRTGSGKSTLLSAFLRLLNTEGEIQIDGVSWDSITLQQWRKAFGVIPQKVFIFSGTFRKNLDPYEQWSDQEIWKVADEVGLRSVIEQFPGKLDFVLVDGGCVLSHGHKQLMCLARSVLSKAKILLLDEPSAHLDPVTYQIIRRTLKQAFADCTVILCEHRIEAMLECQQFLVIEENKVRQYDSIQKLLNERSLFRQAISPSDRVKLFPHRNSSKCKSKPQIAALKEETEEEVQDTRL
SMILES,trans-epithelial electric resistance normalized to DMSO (set to 100%) (CFTR channel),"presence of CFTR epitopes (CF3 extracellular, Alomone intracellular) (CFTR [1])",total presence of CFTR protein (band C/actin) (CFTR [2])
"CS(=O)(=O)Nc1ccc(C(=O)OC(Cc2c(Cl)c[n+]([O-])cc2Cl)c2ccc(OC(F)F)c(OCC3CC3)c2)cc1OCC1CC1 (stereo not drawn) [CHF6001, 3-Cyclopropylmethoxy-4-methanesulfonylamino-benzoic acid 1-(3-cyclopropylmethoxy-4-difluoromethoxy-phenyl)-2-(3,5-dichloro-1-oxy-pyridin-4-yl)-ethyl ester]",decrease the electric resistance,restore the presence of CFTR epitopes,up-regulation of CFTR protein
"O=C(Nc1c(Cl)cncc1Cl)c1ccc(OC(F)F)c(OCC2CC2)c1 [Roflumilast, 3-cyclo-propylmethoxy-4-difluoromethoxy-N-[3,5-di-chloropyrid-4-yl]-benzamide]",decrease the electric resistance,restore the presence of CFTR epitopes,up-regulation of CFTR protein
